Assay results: PubChem BioAssay AID248 (DTP/NCI, 2004)
Values joined by “and” are separate entries in the source; they are usually repeats but may differ in a detail not shown here. Equal entries are not always repeated. Toxic doses and inconclusive results are not listed. No stated cut-off is given here; in the data, active means T/C of 150% or more; inactive means T/C below 125%.

Tested on: L1210 leukemia ip in BDF1 mice, survival T/C
Experiment: NCI In Vivo Anticancer Drug Screen. Data for tumor model L1210 Leukemia (intraperitoneal) in B6D2F1 (BDF1) mice
Conditions: endpoint: mean survival time, higher = longer survival
Outline: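 Each compound was tested against a transplantable tumor grown in mice. The endpoint was survival, with treated animals benchmarked against vehicle controls as a simple ratio.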

[1] = dose: 100.0 mg/kg/injection, schedule: Q04DX003 (ip), vehicle: Klucel (hydroxypropylcellulose) (HPC)
[2] = dose: 200.0 mg/kg/injection, schedule: Q04DX003 (ip), vehicle: Klucel (hydroxypropylcellulose) (HPC)

Measured: T/C

Nc1nc2nc(N=Nc3ccc(C(=O)O)c(O)c3)[nH]c2c(=O)[nH]1
inactive: [1] 99 % of control | [2] 88 % of control

CC1(C)OC(COC(=O)c2ccccc2)C2OC(C)(C)OC(COC(=O)c3ccccc3)C2O1 (stereo not drawn)
inactive: dose: 100.0 mg/kg/injection, schedule: Q01DX001 (ip), vehicle: carboxymethylcellulose (CMC) 93 % of control | dose: 200.0 mg/kg/injection, schedule: Q01DX001 (ip), vehicle: carboxymethylcellulose (CMC) 90 % of control | dose: 400.0 mg/kg/injection, schedule: Q01DX001 (ip), vehicle: carboxymethylcellulose (CMC) 95 % of control

O=P(Oc1ccccc1)(Oc1ccccc1)c1ccccc1
inactive: [1] 95 % of control | [2] 98 % of control | dose: 400.0 mg/kg/injection, schedule: Q04DX003 (ip), vehicle: Klucel (hydroxypropylcellulose) (HPC) 98 % of control

COc1ccc(NC(=O)Nc2c(C)cccc2C)cc1
inactive: dose: 100.0 mg/kg/injection, schedule: Q01DX009 (ip), vehicle: gum acacia 97 % of control | dose: 100.0 mg/kg/injection, schedule: Q04DX003 (ip), vehicle: gum acacia 97 % of control | dose: 200.0 mg/kg/injection, schedule: Q01DX009 (ip), vehicle: gum acacia 97 % of control | dose: 200.0 mg/kg/injection, schedule: Q04DX003 (ip), vehicle: gum acacia 92 % of control | dose: 400.0 mg/kg/injection, schedule: Q01DX009 (ip), vehicle: gum acacia 92 % of control | dose: 400.0 mg/kg/injection, schedule: Q04DX003 (ip), vehicle: gum acacia 91 % of control

CCCCCCCCCC(=O)Nc1c(C)cccc1C
inactive: dose: 100.0 mg/kg/injection, schedule: Q04DX002 (ip), vehicle: saline with Tween-80 94 % of control | dose: 200.0 mg/kg/injection, schedule: Q04DX002 (ip), vehicle: saline with Tween-80 111 % of control | dose: 400.0 mg/kg/injection, schedule: Q04DX002 (ip), vehicle: saline with Tween-80 94 % of control

COc1ccc(C(=O)N/N=C/c2ccccc2)cc1
inactive: dose: 50.0 mg/kg/injection, schedule: Q01DX001 (ip), vehicle: saline 102 % of control | dose: 100.0 mg/kg/injection, schedule: Q01DX001 (ip), vehicle: saline 98 % of control | dose: 200.0 mg/kg/injection, schedule: Q01DX001 (ip), vehicle: saline 98 % of control | dose: 400.0 mg/kg/injection, schedule: Q01DX001 (ip), vehicle: saline 98 % of control

CNc1cc(N)ncn1
inactive: dose: 25.0 mg/kg/injection, schedule: Q01DX Z (ip), vehicle: saline 90 % of control | dose: 75.0 mg/kg/injection, schedule: Q01DX Z (ip), vehicle: saline 93 % of control

Cc1ccc(C)c(C(=O)CCC(=O)O)c1
inactive: dose: 25.0 mg/kg/injection, schedule: Q01DX009 (ip), vehicle: saline with Tween-80 100 % of control | dose: 50.0 mg/kg/injection, schedule: Q01DX009 (ip), vehicle: saline with Tween-80 96 % of control | dose: 100.0 mg/kg/injection, schedule: Q01DX009 (ip), vehicle: saline with Tween-80 105 % of control | dose: 100.0 mg/kg/injection, schedule: Q01DX009 (ip), vehicle: saline 95 % of control | dose: 100.0 mg/kg/injection, schedule: Q04DX003 (ip), vehicle: saline with Tween-80 91 % of control | dose: 200.0 mg/kg/injection, schedule: Q01DX009 (ip), vehicle: saline with Tween-80 94 % of control | dose: 200.0 mg/kg/injection, schedule: Q01DX009 (ip), vehicle: saline 95 % of control | dose: 200.0 mg/kg/injection, schedule: Q04DX003 (ip), vehicle: saline with Tween-80 92 % of control | dose: 400.0 mg/kg/injection, schedule: Q01DX009 (ip), vehicle: saline 95 % of control | dose: 400.0 mg/kg/injection, schedule: Q04DX003 (ip), vehicle: saline with Tween-80 97 % of control

Cc1cn(Cc2ccc(Cl)cc2Cl)c(C)n1
inactive: dose: 25.0 mg/kg/injection, schedule: Q01DX001 (ip), vehicle: Klucel (hydroxypropylcellulose) (HPC) 100 % of control | dose: 25.0 mg/kg/injection, schedule: Q01DX009 (ip), vehicle: Klucel (hydroxypropylcellulose) (HPC) 97 % of control and 109 % of control | dose: 50.0 mg/kg/injection, schedule: Q01DX001 (ip), vehicle: Klucel (hydroxypropylcellulose) (HPC) 100 % of control | dose: 50.0 mg/kg/injection, schedule: Q04DX002 (ip), vehicle: Klucel (hydroxypropylcellulose) (HPC) 102 % of control and 108 % of control | dose: 100.0 mg/kg/injection, schedule: Q01DX001 (ip), vehicle: Klucel (hydroxypropylcellulose) (HPC) 94 % of control
